Results taken from ChEMBL document CHEMBL1201862, “PubChem BioAssay data set” (2004).
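The compound was tested at five concentrations on cells cultured in 96-well plates, with a 48-hour exposure period. GI50 is the concentration that inhibits growth by half.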 Calls of active or inactive are those of the source. Cut-off read from the data, not from the text of the source: active = GI50 up to about 1.1 µM and inactive = higher.

Tests used:
Assay in all cases: growth of human tumour cells (NCI), 48 h
HOP-62 = tested on: HOP-62
BT-549 = tested on: BT-549
EKVX = tested on: EKVX
Malme-3M = tested on: Malme-3M
UACC-62 = tested on: UACC-62
MDA-MB-231 = tested on: MDA-MB-231
PC-3 = tested on: PC-3
SK-MEL-28 = tested on: SK-MEL-28
A498 = tested on: A498
A549 = tested on: A549
CAKI-1 = tested on: CAKI-1
HCT-15 = tested on: HCT-15
UACC-257 = tested on: UACC-257
Hs-578T = tested on: Hs-578T
MDA-MB-435 = tested on: MDA-MB-435
T47D = tested on: T47D
NCI-H460 = tested on: NCI-H460
786-0 = tested on: 786-0
KM12 = tested on: KM12
SF-295 = tested on: SF-295
UO-31 = tested on: UO-31
COLO 205 = tested on: COLO 205
RPMI-8226 = tested on: RPMI-8226
SNB-19 = tested on: SNB-19
MCF7 = tested on: MCF7
OVCAR-3 = tested on: OVCAR-3
HOP-92 = tested on: HOP-92
U-251 = tested on: U-251
SF-268 = tested on: SF-268
HCC 2998 = tested on: HCC 2998
TK-10 = tested on: TK-10
SF-539 = tested on: SF-539
CCRF-CEM = tested on: CCRF-CEM
SK-OV-3 = tested on: SK-OV-3
MDA-N = tested on: MDA-N
OVCAR-8 = tested on: OVCAR-8
NCI/ADR-RES = tested on: NCI/ADR-RES
DU-145 = tested on: DU-145
K562 = tested on: K562
SN12C = tested on: SN12C
NCI-H522 = tested on: NCI-H522
OVCAR-5 = tested on: OVCAR-5
HCT-116 = tested on: HCT-116
SK-MEL-5 = tested on: SK-MEL-5
IGROV-1 = tested on: IGROV-1
ACHN = tested on: ACHN
OVCAR-4 = tested on: OVCAR-4
NCI-H23 = tested on: NCI-H23
HT-29 = tested on: HT-29
SK-MEL-2 = tested on: SK-MEL-2
M14 = tested on: M14
NCI-H226 = tested on: NCI-H226
RXF 393 = tested on: RXF 393
MOLT-4 = tested on: MOLT-4
LOX IMVI = tested on: LOX IMVI
SNB-75 = tested on: SNB-75
SW-620 = tested on: SW-620
HL-60 = tested on: HL-60

In the case of `Cn1c(=O)c2c(nc(N/N=C3/SCC(=O)N3Cc3ccccc3)n2C)n(C)c1=O`, the GI50 (HOP-62) is reported as > 100 µM (inactive), the GI50 (BT-549) is reported as 74 µM (inactive) and the GI50 (EKVX) is reported as 94.2 µM (inactive). The GI50 (Malme-3M) was > 100 µM (inactive), the GI50 (UACC-62) was 64.4 µM (inactive) and the GI50 (MDA-MB-231) was 60.7 µM (inactive). The GI50 (PC-3) was 39.2 µM (inactive), the GI50 (SK-MEL-28) was > 100 µM (inactive) and the GI50 (A498) was > 100 µM (inactive). The GI50 (A549) was 89.5 µM (inactive), the GI50 (CAKI-1) was > 100 µM (inactive) and the GI50 (HCT-15) was 85.5 µM. For the same molecule, the GI50 (UACC-257) was > 100 µM (inactive), the GI50 (Hs-578T) was 60.8 µM (inactive) and the GI50 (MDA-MB-435) was > 100 µM (inactive). The GI50 (T47D) was 61.4 µM (inactive), the GI50 (NCI-H460) was 38 µM (inactive) and the GI50 (786-0) was > 100 µM (inactive). For the same molecule, the GI50 (KM12) was 94.2 µM (inactive), the GI50 (SF-295) was > 100 µM (inactive) and the GI50 (UO-31) was > 100 µM (inactive). For the same molecule, the GI50 (COLO 205) was 50.4 µM (inactive), the GI50 (RPMI-8226) was 17.5 µM (inactive) and the GI50 (SNB-19) was > 100 µM (inactive). For the same molecule, the GI50 (MCF7) was 81.7 µM (inactive), the GI50 (OVCAR-3) was 20.9 µM (inactive) and the GI50 (HOP-92) was 5.9 µM (inactive). The GI50 (U-251) was 54.6 µM (inactive), the GI50 (SF-268) was 60.7 µM (inactive) and the GI50 (HCC 2998) was > 100 µM (inactive). For the same molecule, the GI50 (TK-10) was > 100 µM (inactive), the GI50 (SF-539) was 25.6 µM (inactive) and the GI50 (CCRF-CEM) was 47.9 µM (inactive). For the same molecule, the GI50 (SK-OV-3) was 43.5 µM (inactive), the GI50 (MDA-N) was > 100 µM (inactive) and the GI50 (OVCAR-8) was > 100 µM (inactive). The GI50 (NCI/ADR-RES) was > 100 µM (inactive), the GI50 (DU-145) was > 100 µM (inactive) and the GI50 (K562) was < 0.01 µM (active). For the same molecule, the GI50 (SN12C) was > 100 µM (inactive), the GI50 (NCI-H522) was 71.4 µM (inactive) and the GI50 (OVCAR-5) was > 100 µM (inactive). The GI50 (HCT-116) was > 100 µM (inactive), the GI50 (SK-MEL-5) was 34 µM (inactive) and the GI50 (IGROV-1) was 34.3 µM (inactive). The GI50 (ACHN) was > 100 µM (inactive), the GI50 (OVCAR-4) was 26.4 µM (inactive) and the GI50 (NCI-H23) was > 100 µM (inactive). For the same molecule, the GI50 (HT-29) was 48.4 µM (inactive), the GI50 (SK-MEL-2) was 58.7 µM (inactive) and the GI50 (M14) was > 100 µM (inactive). For the same molecule, the GI50 (NCI-H226) was > 100 µM (inactive) and the GI50 (RXF 393) was > 100 µM (inactive).

In the case of `Clc1ccc2c(NCCNc3ccnc4cc(Cl)ccc34)ccnc2c1`, the GI50 (HOP-62) is reported as 16.2 µM (inactive), the GI50 (BT-549) is reported as 19.2 µM (inactive) and the GI50 (EKVX) is reported as 19.2 µM (inactive). The GI50 (Malme-3M) was > 100 µM (inactive), the GI50 (UACC-62) was 18.1 µM (inactive) and the GI50 (MDA-MB-231) was 17 µM (inactive). The GI50 (PC-3) was 17 µM (inactive), the GI50 (SK-MEL-28) was 17.3 µM (inactive) and the GI50 (A498) was 16.9 µM (inactive). The GI50 (A549) was 18.5 µM (inactive), the GI50 (MOLT-4) was 17.4 µM (inactive) and the GI50 (CAKI-1) was 20.2 µM (inactive). For the same molecule, the GI50 (HCT-15) was 15.6 µM, the GI50 (UACC-257) was 17.9 µM (inactive) and the GI50 (Hs-578T) was 31.9 µM (inactive). The GI50 (MDA-MB-435) was 17.8 µM (inactive), the GI50 (T47D) was 23.6 µM (inactive) and the GI50 (NCI-H460) was 14 µM (inactive). The GI50 (786-0) was 14.3 µM (inactive), the GI50 (KM12) was 18.2 µM (inactive) and the GI50 (SF-295) was 13.3 µM (inactive). For the same molecule, the GI50 (UO-31) was 15.7 µM (inactive), the GI50 (LOX IMVI) was 17.7 µM (inactive) and the GI50 (COLO 205) was 14.6 µM (inactive). The GI50 (RPMI-8226) was 20.6 µM (inactive), the GI50 (SNB-19) was 20.1 µM (inactive) and the GI50 (MCF7) was 19.7 µM (inactive). For the same molecule, the GI50 (OVCAR-3) was 15.1 µM (inactive), the GI50 (HOP-92) was 15.2 µM (inactive) and the GI50 (U-251) was 17.9 µM (inactive). The GI50 (SF-268) was 25.9 µM (inactive), the GI50 (SNB-75) was 21.5 µM (inactive) and the GI50 (HCC 2998) was 15.2 µM (inactive). For the same molecule, the GI50 (TK-10) was 17.9 µM (inactive), the GI50 (SF-539) was 12 µM (inactive) and the GI50 (CCRF-CEM) was 14.6 µM (inactive). The GI50 (SK-OV-3) was 17.7 µM (inactive), the GI50 (MDA-N) was 17.1 µM (inactive) and the GI50 (OVCAR-8) was 19.7 µM (inactive). For the same molecule, the GI50 (NCI/ADR-RES) was 30.8 µM (inactive), the GI50 (DU-145) was 22.8 µM (inactive) and the GI50 (K562) was 12.3 µM (inactive). The GI50 (SW-620) was 13.6 µM (inactive), the GI50 (SN12C) was 17.8 µM (inactive) and the GI50 (NCI-H522) was 18.3 µM (inactive). For the same molecule, the GI50 (OVCAR-5) was 16.5 µM (inactive), the GI50 (HL-60) was 14.6 µM (inactive) and the GI50 (HCT-116) was 16.9 µM (inactive). For the same molecule, the GI50 (SK-MEL-5) was 22.4 µM (inactive), the GI50 (IGROV-1) was 18.2 µM (inactive) and the GI50 (ACHN) was 17.8 µM (inactive). The GI50 (OVCAR-4) was 20 µM (inactive), the GI50 (NCI-H23) was 17.1 µM (inactive) and the GI50 (HT-29) was 15.3 µM (inactive). The GI50 (SK-MEL-2) was 18.9 µM (inactive), the GI50 (M14) was 16.9 µM (inactive) and the GI50 (NCI-H226) was 37.9 µM (inactive). For the same molecule, the GI50 (RXF 393) was 20 µM (inactive).

With `C/C=C1/C[C@@H](C)[C@@](C)(O)C(=O)OCC2=CC[N+]3([O-])CC[C@@H](OC1=O)[C@@H]23` (stereo partly specified) [SENECIONINE N-OXIDE] the GI50 (BT-549) was > 100 µM (inactive), the GI50 (EKVX) was > 100 µM (inactive) and the GI50 (Malme-3M) was 94.6 µM (inactive). For the same molecule, the GI50 (UACC-62) was > 100 µM (inactive), the GI50 (MDA-MB-231) was > 100 µM (inactive) and the GI50 (PC-3) was > 100 µM (inactive). The GI50 (SK-MEL-28) was > 100 µM (inactive), the GI50 (A498) was > 100 µM (inactive) and the GI50 (A549) was > 100 µM (inactive). For the same molecule, the GI50 (MOLT-4) was > 100 µM (inactive), the GI50 (CAKI-1) was > 100 µM (inactive) and the GI50 (HCT-15) was greater than 100 µM. For the same molecule, the GI50 (UACC-257) was > 100 µM (inactive), the GI50 (Hs-578T) was > 100 µM (inactive) and the GI50 (MDA-MB-435) was > 100 µM (inactive). The GI50 (T47D) was > 100 µM (inactive), the GI50 (NCI-H460) was > 100 µM (inactive) and the GI50 (786-0) was > 100 µM (inactive). The GI50 (KM12) was > 100 µM (inactive), the GI50 (SF-295) was > 100 µM (inactive) and the GI50 (UO-31) was > 100 µM (inactive). For the same molecule, the GI50 (LOX IMVI) was > 100 µM (inactive), the GI50 (COLO 205) was > 100 µM (inactive) and the GI50 (SNB-19) was > 100 µM (inactive). For the same molecule, the GI50 (MCF7) was > 100 µM (inactive), the GI50 (OVCAR-3) was > 100 µM (inactive) and the GI50 (HOP-92) was > 100 µM (inactive). For the same molecule, the GI50 (U-251) was > 100 µM (inactive), the GI50 (SF-268) was > 100 µM (inactive) and the GI50 (SNB-75) was > 100 µM (inactive). The GI50 (HCC 2998) was > 100 µM (inactive), the GI50 (TK-10) was > 100 µM (inactive) and the GI50 (SF-539) was > 100 µM (inactive). The GI50 (CCRF-CEM) was > 100 µM (inactive), the GI50 (SK-OV-3) was > 100 µM (inactive) and the GI50 (MDA-N) was > 100 µM (inactive). For the same molecule, the GI50 (OVCAR-8) was > 100 µM (inactive), the GI50 (NCI/ADR-RES) was > 100 µM (inactive) and the GI50 (DU-145) was > 100 µM (inactive). For the same molecule, the GI50 (K562) was 0.0482 µM (active), the GI50 (SW-620) was > 100 µM (inactive) and the GI50 (SN12C) was > 100 µM (inactive). For the same molecule, the GI50 (NCI-H522) was > 100 µM (inactive), the GI50 (OVCAR-5) was > 100 µM (inactive) and the GI50 (HL-60) was > 100 µM (inactive). The GI50 (HCT-116) was > 100 µM (inactive), the GI50 (SK-MEL-5) was > 100 µM (inactive) and the GI50 (IGROV-1) was > 100 µM (inactive). The GI50 (ACHN) was > 100 µM (inactive), the GI50 (OVCAR-4) was > 100 µM (inactive) and the GI50 (NCI-H23) was > 100 µM (inactive). The GI50 (HT-29) was > 100 µM (inactive), the GI50 (SK-MEL-2) was > 100 µM (inactive) and the GI50 (M14) was > 100 µM (inactive). The GI50 (NCI-H226) was > 100 µM (inactive).
